Assay results: patent US20120028976A1, “PHARMACOKINETICALLY-BASED DOSING REGIMENTS OF A THROMBIN RECEPTOR ANTAGONIST” (priority 2008, published 2012)
Read-outs that look alike come from different tables or passages of the source.

Columns and labels:
[1] = Rising single dose (RSD) study: pharmacokinetics of orally administered COMPOUND 1 in healthy subjects; type: in vivo, human; settings: for Cmax / AUC(0-t) / Tmax: po; for time for which plasma concentrations were quantifiable: LLOQ 0.1 ng/ml
Source text: (§1) Phase I clinical studies were designed to evaluate the pharmacokinetics of COMPOUND 1 in healthy subjects after rising single and multiple doses. The study included a randomized, evaluator-blind, placebo-controlled, rising single dose (“RSD”) study and a rising multiple dose (“RSM”) study of orally administered COMPOUND 1 in healthy subjects.
(§2) In the single-dose study, 50 healthy males were enrolled into 6 sequential cohorts and randomized to receive in ascending dose manner placebo (n=2-3/group) or oral COMPOUND 1 (0.25, 1, 5, 10, 20 and 40 mg; n=5-6/group). In the multiple-dose study, 36 healthy subjects were enrolled into 3 sequential cohorts and randomized to receive in ascending-dose manner placebo (n=4/group) or oral COMPOUND 1(1, 3, and 5 mg OD in the morning for 28 days, n=8/group). A fourth cohort in the same study (n=12) was randomized to receive a single loading dose of COMPOUND 1, 10 mg (n=6) or 20 mg (n=6) on Day 1, followed by maintenance doses of 1 mg daily for 6 days. Measured and derived pharmacokinetic parameters were used to assess the pharmacokinetic profile. The doses were administered using appropriate combinations of the capsule formulations disclosed in Table 1.
Several observations were made from the data collected in the RSD Study. […] Tmax ranged from 0.5 to 2 hrs after dosing.
To estimate the terminal-phase half-life (t½) of COMPOUND 1, samples were collected from subjects in the 20 mg and 40 mg dose groups for up to 64 days after dosing. […] Plasma concentrations were quantifiable for up to 53 days in subjects administered 20 mg and up to 62 days in subjects administered 40 mg.

clinical = settings: human, in vivo
Source text: as §1, §2
Variability was low to moderate.
The RMD study also allowed evaluation of COMPOUND 1 accumulation. Mean accumulation index (R) values ranged from 4.72 to 6.37. The effective half-lives determined from R values ranged from 59.8 to 141 hrs.

[2] = single oral dose 40 mg, maximum individual value
[3] = single oral dose 40 mg, minimum individual value

time to maximal plasma levels ([1]; across all doses in both studies (single and multiple oral dosing)): 60 to 90 min
half-life ([1]; male, human, plasma, oral, subjects of the 20 mg and 40 mg single dose groups, samples up to 64 days after dosing, read-out: apparent terminal-phase half-life (t1/2)): 126 to 269 h
Cmax ([1]; male, human, plasma, 0.25 mg, single oral dose 0.25 mg, n=6, healthy males, plasma, mean (CV %), read-out: Cmax): 2.23 ng/mL
AUC(0-t) ([1]; male, human, plasma, 0.25 mg, single oral dose 0.25 mg, n=6, mean (CV %), read-out: AUC(0-72 hr)): 33.7 ng·h/mL
Tmax ([1]; male, human, plasma, 0.25 mg, single oral dose 0.25 mg, n=6, value (range), read-out: Tmax): 1 h
AUC(0-t) ([1]; male, human, plasma, 1 mg, single oral dose 1 mg, n=6, mean (CV %), read-out: AUC(0-72 hr)): 142 ng·h/mL
Cmax ([1]; male, human, plasma, 1 mg, single oral dose 1 mg, n=6, mean (CV %), read-out: Cmax): 9.29 ng/mL
Tmax ([1]; male, human, plasma, 1 mg, single oral dose 1 mg, n=6, value (range), read-out: Tmax): 1.25 h
AUC(0-t) ([1]; male, human, plasma, 5 mg, single oral dose 5 mg, n=6, mean (CV %), read-out: AUC(0-72 hr)): 740 ng·h/mL
Cmax ([1]; male, human, plasma, 5 mg, single oral dose 5 mg, n=6, mean (CV %), read-out: Cmax): 51.4 ng/mL
Tmax ([1]; male, human, plasma, 5 mg, single oral dose 5 mg, n=6, value (range), read-out: Tmax): 0.75 h
AUC(0-t) ([1]; male, human, plasma, 10 mg, single oral dose 10 mg, n=6, mean (CV %), read-out: AUC(0-72 hr)): 1510 ng·h/mL
Cmax ([1]; male, human, plasma, 10 mg, single oral dose 10 mg, n=6, mean (CV %), read-out: Cmax): 99.2 ng/mL
Tmax ([1]; male, human, plasma, 10 mg, single oral dose 10 mg, n=6, value (range), read-out: Tmax): 1.5 h
AUC(0-t) ([1]; male, human, plasma, 20 mg, single oral dose 20 mg, n=5, mean (CV %), read-out: AUC(0-72 hr)): 3350 ng·h/mL
Cmax ([1]; male, human, plasma, 20 mg, single oral dose 20 mg, n=5, mean (CV %), read-out: Cmax): 183 ng/mL
Tmax ([1]; male, human, plasma, 20 mg, single oral dose 20 mg, n=5, value (range), read-out: Tmax): 1.5 h
Tmax ([1]; male, human, plasma, 40 mg, loading dose 40 mg, single oral (Table 3), read-out: Tmax range): 0.5 to 1.5 h
AUC(0-t) ([1]; male, human, plasma, 40 mg, loading dose 40 mg, single oral, range of individual values (Table 3), read-out: AUC(0-72 hr) range): 4740 to 7510 ng·h/mL
Cmax ([1]; male, human, plasma, 40 mg, loading dose 40 mg, single oral, range of individual values (Table 3), read-out: Cmax range): 238 to 511 ng/mL
AUC(0-t) ([1]; male, human, plasma, 40 mg, single oral dose 40 mg, n=5, mean (CV %), read-out: AUC(0-72 hr), Mean): ~6030 ng·h/mL
Cmax ([1]; male, human, plasma, 40 mg, single oral dose 40 mg, n=5, mean (CV %), read-out: Cmax, Mean): ~376 ng/mL
Tmax ([1]; male, human, plasma, 40 mg, single oral dose 40 mg, n=5, value (range), read-out: Tmax, Mean): 1.5 h
Tmax ([1]; male, human, plasma, 40 mg, single oral dose 40 mg, Tmax corresponding to maximum individual Cmax, read-out: Tmax, Max): 1.5 h
Tmax ([1]; male, human, plasma, 40 mg, single oral dose 40 mg, Tmax corresponding to minimum individual Cmax, read-out: Tmax): 0.5 h
Tmax ([1]; male, human, plasma, single oral doses 0.25 to 40 mg, all dose groups, read-out: Tmax range after dosing): 0.5 to 2 h
dose relation of exposure ([1]; single doses up to 40 mg, FIG. 2): dose related
time for which plasma concentrations were quantifiable ([1]; single oral dose 20 mg): up to 53 days
time for which plasma concentrations were quantifiable ([1]; single oral dose 40 mg): up to 62 days
AUC(0-72 hr), Max [1, 2]: 7508 ng·h/mL
Cmax, Max [1, 2]: 511 ng/mL
AUC(0-72 hr), Min [1, 3]: 4745 ng·h/mL
Cmax, Min [1, 3]: 238 ng/mL
coefficient of variability (CV) for AUC(0-24 h) (clinical): 14-34%
dose relation of exposure (clinical): increased in a dose-related manner
AUC(0-24 hr) Mean (clinical; 1 mg): 58.5 ng·h/mL
Cmax Mean (clinical; 1 mg): 9.78 ng/mL
AUC(0-24 hr) Mean (clinical; 3 mg): 225 ng·h/mL
Cmax (clinical; 3 mg, Cmax Mean): 38.2 ng/mL
Tmax (clinical; 3 mg, Tmax Median): 1 h
AUC(0-24 hr) Mean (clinical; 5 mg): 315 ng·h/mL
Cmax Mean (clinical; 5 mg): 56.4 ng/mL
effective half-lives determined from R values (clinical; 5 mg): 60 to 141 h
Tmax (clinical; 5 mg, Tmax Median): 1 h
half-life (clinical; 5 mg, effective half-lives determined from R values): 59.8 to 141 h
Mean accumulation index (R) values, range over dose groups (clinical; 28 days): 4.72-6.37
half-life (clinical; Mean terminal-phase half-life (t1/2), range over dose groups): 173 to 269 h
Tmax (clinical; Median Tmax values, range over dose groups): 1 to 1.5 h
Tmax (clinical; Tmax Median): 1 h
Compound: CCOC(=O)N[C@@H]1CC[C@@H]2[C@@H](C1)C[C@H]1C(=O)O[C@H](C)[C@H]1[C@H]2/C=C/c1ccc(-c2cccc(F)c2)cn1 [COMPOUND 1]
